From patent US20160223554A1, “METHODS FOR DIAGNOSIS, PROGNOSIS AND METHODS OF TREATMENT” (priority 2011, published 2016)

Columns and labels:
[1] = test system: AML blasts; experiment: SCNP phospho-flow signaling nodes in AML PBMC (Example 2, Study No. 1); format: cell-based, human; conditions: for Mean Value of CRs: CR patients; for Mean Value of CRs / Mean Value of NRs: Study No. 1; for Mean Value of NRs: NR patients
Description: Frozen cells are thawed in a 37° C. water bath and gently resuspended in the vial and transferred to the 15 mL conical tube. The 15 mL tube is centrifuged at 930 RPM (200×g) for 8 minutes at room temperature. The supernatant is aspirated and the pellet is gently resuspended in 1 mL media A. The cell suspension is filtered through a 70 um cell strainer into a new 15 mL tube. The cell strainer is rinsed with 1 mL media A and another 12 ml of media A into the 15 mL tube. The cells are mixed into an even suspension. A 20 μL aliquot is immediately removed into a 96-well plate containing 180 μL PBS+4% FBS+CD45 Alexa 700+PI to determine cell count and viability post spin. After the determination, the 15 mL tubes are centrifuged at 930 RPM (200×g) for 8 minutes at room temperature. The supernatant is aspirated and the cell pellet is gently resuspended in 4 mL PBS+4 μL Amine Aqua and incubated for 15 min in a 37° C. incubator. 10 mL RPMI+1% FBS is added to the cell suspension and the tube is inverted to mix the cells. The 15 mL tubes are centrifuged at 930 RPM (200×g) for 8 minutes at room temperature. The cells are resuspended in Media A at the desired cell concentration (1.25×10^6/mL). For samples with low numbers of cells (<18.5×10^6), the cells are resuspended in up to 15 mL media. For samples with high numbers of cells (>18.5×10^6), the volume is raised to 10 mL with media A and the desired volume is transferred to a new 15 mL tube, and the cell concentration is adjusted to 1.25×10^6 cells/ml. 1.6 mL of the above cell suspension (concentration at 1.25×10^6 cells/ml) is transferred into wells of a multi-well plate. From this plate, 80 ul is dispensed into each well of a subsequent plate. The plates are covered with a lid (Nunc) and placed in a 37° C. incubator for 2 hours to rest.
A concentration for each stimulant that is five folds more (5×) than the final concentration is prepared using Media A as diluent. 5× stimuli are arrayed into wells of a standard 96 well v-bottom plate that correspond to the wells on the plate with cells to be stimulated.
Adding the stimulant: The cell plate(s) are taken out of the incubator and placed in a 37° C. water bath next to the pipette apparatus. The cell plate is taken from the water bath and gently swirled to resuspend any settled cells. With pipettor, the stimulant is dispensed into the cell plate and vortexed at “7” for 5 seconds. The deep well plate is put back into the water bath.
The plate is covered with foil sealer and incubated in a 37° C. water bath for 10 minutes. The plate is spun for 6 minutes at 2000 rpm at room temperature. The cells are aspirated using a 96 well plate aspirator (VP Scientific). The plate is vortexed to resuspend cell pellets in the residual volume. The pellet is ensured to be dispersed before the Methanol step (see cell permeabilization) or clumping will occur.
Cell Permeabilization: Permeability agent, for example methanol, is added slowly and while the plate is vortexing. To do this, the cell plate is placed on titer plate shaker and made sure it is secure. The plate is set to shake using the highest setting. A pipetter is used to add 0.6 mls of 100% methanol to the plate wells. The plate(s) are put on ice until this step has been completed for all plates. Plates are covered with a foil seal using the plate roller to achieve a tight fit. At this stage the plates can be stored at −80° C.
Cells are thawed if frozen. Cells are pelleted at 2000 rpm 5 minutes. Supernatant is aspirated with vacuum aspirator. Plate is vortexed on a “plate vortex” for 5-10 seconds. Cells are washed with 1 mL FACS buffer. Repeat the spin, aspirate and vortex steps as above. 50 μL of FACS/stain buffer with the desired, previously optimized, antibody cocktail is added to two rows of cells at a time and agitate the plate. The plate is covered and incubated in a shaker for 30 minutes at room temperature (RT). During this incubation, the compensation plate is prepared.

[2] = test system: AML blasts; experiment: SCNP signaling and apoptosis nodes in AML BMMC (Example 4, Study No. 2); format: cell-based, human; conditions: Fold metric; all patients, Study No. 2
[3] = Fold metric, Study No. 1, CRp patient included in NR group
[4] = Total Phospho metric, Study No. 1, CRp patient included in NR group
[5] = read-out p-CREB, metric TotalPhospho
[6] = read-out p-Plcγ2, metric TotalPhospho
[7] = read-out p-Erk, metric TotalPhospho
[8] = read-out p-Akt, metric TotalPhospho

## CCCCCCCCCCCCCC(=O)O[C@@H]1[C@@H](C)[C@@]2(O)[C@@H](C=C(CO)C[C@]3(O)C(=O)C(C)=C[C@@H]23)[C@@H]2C(C)(C)[C@]12OC(C)=O [PMA, reference compound]
[1]; [3]
  Mean Value of NRs, p-Erk: 2.03
[2]
  Mean Value of CRs, p-Erk: 2.82
  Mean Value of NRs, p-Erk: 1.74

## IGF-1
[1]; [4]
  Mean Value of CRs, p-CREB Alexa488: 1.11
  Mean Value of CRs, p-CREB PE: 1.42
  Mean Value of CRs, p-Plcγ2: 1.82
  Mean Value of NRs, p-CREB Alexa488: 1.62
  Mean Value of NRs, p-CREB PE: 2.29
  Mean Value of NRs, p-Plcγ2: 2.76
[1]; [5]
  Mean Value of CRs: 1.52
  Mean Value of NRs: 2.29
[1]; [6]
  Mean Value of CRs: 1.91
  Mean Value of NRs: 2.76

## IL-l0
[1]; [4]
  Mean Value of CRs, p-Stat1: 0.17
  Mean Value of NRs, p-Stat1: 0.47

## TNFα
[1]; [7]
  Mean Value of CRs: 1.25
  Mean Value of NRs: 1.65

## SDF -1α
[1]; [8]
  Mean Value of CRs: 0.57
  Mean Value of NRs: 1.04

B1: M-CSF (protein, UniProt P09603 33-554, looked up)
Macrophage colony-stimulating …: EEVSEYCSHMIGSGHLQSLQRLIDSQMETSCQITFEFVDQEQLKDPVCYLKKAFLLVQDIMEDTMRFRDNTPNAIAIVQLQELSLRLKSCFTKDYEEHDKACVRTFYETPLQLLEKVKNVFNETKNLLDKDWNIFSKNCNNSFAECSSQDVVTKPDCNCLYPKAIPSSDPASVSPHQPLAPSMAPVAGLTWEDSEGTEGSSLLPGEQPLHTVDPGSAKQRPPRSTCQSFEPPETPVVKDSTIGGSPQPRPSVGAFNPGMEDILDSAMGTNWVPEEASGEASEIPVPQGTELSPSRPGGGSMQTEPARPSNFLSASSPLPASAKGQQPADVTGTALPRVGPVRPTGQDWNHTPQKTDHPSALLRDPPEPGSPRISSLRPQGLSNPSTLSAQPQLSRSHSSGSVLPLGELEGRRSTRDRRSPAEPEGGPASEGAARPLPRFNSVPLTDTGHERQSEGSFSPQLQESVFHLLVPSVILVLLAVGGLLFYRWRRRSHQEPQRADSPLEQPEGSPLTQDDRQVELPV
[1]; [3]
  Mean Value of CRs, p-Akt: −0.16
  Mean Value of NRs, p-Akt: 0.05
[1]; [4]
  Mean Value of CRs, p-CREB: 1.26
  Mean Value of CRs, p-Plcγ2: 1.79
  Mean Value of NRs, p-CREB: 1.76
  Mean Value of NRs, p-Plcγ2: 2.8
[1]; [6]
  Mean Value of CRs: 1.86
  Mean Value of NRs: 2.81

B2: CD40L (protein, UniProt P29965 113-261, looked up)
CD40 ligand, soluble form: MQKGDQNPQIAAHVISEASSKTTSVLQWAEKGYYTMSNNLVTLENGKQLTVKRQGLYYIYAQVTFCSNREASSQAPFIASLCLKSPGRFERILLRAANTHSSAKPCGQQSIHLGGVFELQPGASVFVNVTDPSQVSHGTGFTSFGLLKL
[1]; [4]
  Mean Value of CRs, p-CREB: 1.37
  Mean Value of CRs, p-Erk: 1.18
  Mean Value of NRs, p-CREB: 2.67
  Mean Value of NRs, p-Erk: 1.62
[1]; [5]
  Mean Value of CRs: 1.55
  Mean Value of NRs: 2.66
[1]; [7]
  Mean Value of CRs: 1.18
  Mean Value of NRs: 1.64
